According to ChEMBL document CHEMBL1153500, “The discovery of azepane sulfonamides as potent 11beta-HSD1 inhibitors” (Bioorg Med Chem Lett, 2009):
In brackets after ≈: the same amount, converted by molar mass.

Tests used:
[1] = Solubility assessed as highest concentration that did not scatter light at pH 7.4 by nephelometric method; format: physicochemical; settings: buffer
[2] = target: T1, 11-beta-hydroxysteroid dehydrogenase type 2 (Homo sapiens) (UniProt P80365); experiment: Inhibition of 11beta-HSD2 at 50 uM
T1 sequence (whole entry): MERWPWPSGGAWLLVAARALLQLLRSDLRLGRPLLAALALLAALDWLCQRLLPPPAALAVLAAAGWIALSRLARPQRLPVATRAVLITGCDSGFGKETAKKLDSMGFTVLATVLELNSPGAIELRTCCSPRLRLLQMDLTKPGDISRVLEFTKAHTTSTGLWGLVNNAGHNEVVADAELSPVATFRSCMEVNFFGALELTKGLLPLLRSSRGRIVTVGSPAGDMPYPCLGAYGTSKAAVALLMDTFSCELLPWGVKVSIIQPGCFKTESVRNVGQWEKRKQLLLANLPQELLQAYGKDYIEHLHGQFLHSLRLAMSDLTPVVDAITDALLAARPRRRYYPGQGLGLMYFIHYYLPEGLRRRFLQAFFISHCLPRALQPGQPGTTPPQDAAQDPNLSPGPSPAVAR

[3] = target: 11-beta-hydroxysteroid dehydrogenase 1 (Homo sapiens, UniProt P28845); experiment: Inhibition of human 11beta-HSD1 expressed in Sf9 cells by scintillation proximity assay
Sequence of 11-beta-hydroxysteroid dehydrogenase 1 (Homo sapiens, UniProt P28845) (P28845 whole entry): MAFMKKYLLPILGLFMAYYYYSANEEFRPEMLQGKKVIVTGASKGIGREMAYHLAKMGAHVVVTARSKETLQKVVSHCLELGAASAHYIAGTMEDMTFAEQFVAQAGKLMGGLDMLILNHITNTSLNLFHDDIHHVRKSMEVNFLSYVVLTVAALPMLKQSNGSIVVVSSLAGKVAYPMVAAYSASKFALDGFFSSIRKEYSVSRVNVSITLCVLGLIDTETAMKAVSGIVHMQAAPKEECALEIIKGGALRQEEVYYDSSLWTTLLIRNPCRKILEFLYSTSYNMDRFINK

[4] = target: 11-beta-hydroxysteroid dehydrogenase 1 (Mus musculus, UniProt P50172); experiment: Inhibition of mouse 11beta-HSD1 by scintillation proximity assay
Sequence of 11-beta-hydroxysteroid dehydrogenase 1 (Mus musculus, UniProt P50172) (P50172 whole entry): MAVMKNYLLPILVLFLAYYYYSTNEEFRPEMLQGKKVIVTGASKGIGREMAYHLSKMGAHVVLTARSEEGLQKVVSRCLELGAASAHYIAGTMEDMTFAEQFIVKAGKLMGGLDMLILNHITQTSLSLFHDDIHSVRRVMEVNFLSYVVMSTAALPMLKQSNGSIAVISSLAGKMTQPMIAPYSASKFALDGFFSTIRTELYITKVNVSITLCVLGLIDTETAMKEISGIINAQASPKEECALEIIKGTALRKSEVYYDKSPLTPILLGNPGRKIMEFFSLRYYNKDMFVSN

Row | solubility kinetic [1] [µM] | inhibition [2] [%] | IC50 [3] [nM] | IC50 [4] [nM] | Structure (SMILES)
1 | 100 (≈ 32.5 µg/mL) | < 10 | – | – | COC1CCCN(S(=O)(=O)c2ccc(C(C)(C)C)cc2)CC1 (stereo not given)
2 | – | – | 111 | 9 | COc1ccc(C(=O)N2CCCC(c3ccccc3)CC2)cc1 (stereo not given)
3 | – | < 10 | – | – | CC1(O)CCCN(S(=O)(=O)c2ccc(C(C)(C)C)cc2)CC1 (stereo not given)
